Assays:
HEK293T [1] = experiment: Inhibition of Influenza A virus RdRP transfected in HEK293T cells co-transfected with NP/PA/PB1/PB2/pRL-SV40 at 1 nM incubated for 24 hrs by minireplicon based dual luciferase assay relative to control; type: cell-based
Influenza A virus [2] = experiment: Antiviral activity against Influenza A virus (A/Fort Monmouth/1/1947(H1N1)) infected in dog MDCK cells assessed as inhibition of M2 RNA level at 3 nM measured after 2 hrs by qRT-PCR relative to control; type: functional
[3] = Clearance in rat liver microsomes in presence of NADPH generating system by LC-MS/MS analysis; type: ADME, Microsome
[4] = Antiviral activity against Influenza A virus (A/WUHAN/359/1995(H3N2)) infected in dog MDCK cells assessed as inhibition of virus-induced cytopathogenicity incubated for 48 hrs; type: functional, cell-based
[5] = Selectivity index, ratio of TC50 for MDCK cells to IC50 for antiviral activity against Influenza A virus (A/WUHAN/359/1995(H3N2)) infected in MDCK cells; type: toxicity, cell-based; details: dog, read-out: Selectivity Index
Influenza A virus [6] = experiment: Antiviral activity against Influenza A virus (A/Fort Monmouth/1/1947(H1N1)) infected in dog MDCK cells assessed as inhibition of virus-induced cytopathogenicity incubated for 48 hrs; type: functional, organism-based
MDCK = experiment: Cytotoxicity against MDCK cells assessed as reduction in cell viability at 20 uM measured after 48 hrs by CCK8 assay; type: cell-based, Canis lupus familiaris; details: dog
[7] = Half life in Sprague-Dawley rat at 5 mg/kg, po measured after 24 hrs by LC-MS/MS analysis; type: ADME, organism-based; details: in vivo
[8] = Selectivity index, ratio of TC50 for MDCK cells to IC50 for antiviral activity against Influenza A virus (A/Fort Monmouth/1/1947(H1N1)) infected in MDCK cells; type: toxicity, cell-based; details: dog, read-out: Selectivity Index
HEK293T [9] = experiment: Inhibition of Influenza A virus RdRP transfected in HEK293T cells co-transfected with NP/PA/PB1/PB2/pRL-SV40 incubated for 24 hrs by DualGlo-luciferase assay; type: cell-based
[10] = Half life in rat liver microsomes in presence of NADPH generating system by LC-MS/MS analysis; type: ADME, Microsome
[11] = Tmax in Sprague-Dawley rat at 5 mg/kg, po measured after 24 hrs by LC-MS/MS analysis; type: ADME, organism-based; details: in vivo
[12] = Clearance in human liver microsomes in presence of NADPH generating system by LC-MS/MS analysis; type: ADME, Microsome
Influenza A virus [13] = experiment: Antiviral activity against Influenza A virus (A/Fort Monmouth/1/1947(H1N1)) infected in dog MDCK cells assessed as inhibition of M2 protein measured after 18 hrs by immunofluorescence microscopic analysis; type: functional, organism-based
Influenza A virus [14] = experiment: Antiviral activity against Influenza A virus (A/Fort Monmouth/1/1947(H1N1)) infected in dog MDCK cells assessed as downregulation of M2 mRNA level measured after 2 hrs by qRT-PCR; type: functional, organism-based
[15] = Cmax in Sprague-Dawley rat at 5 mg/kg, po measured after 24 hrs by LC-MS/MS analysis; type: ADME, organism-based; set-up: dose 5 mg/kg, time 24 hrs, route po; details: in vivo
[16] = Half life in mouse liver microsomes in presence of NADPH generating system by LC-MS/MS analysis; type: ADME, Microsome
[17] = Half life in human liver microsomes in presence of NADPH generating system by LC-MS/MS analysis; type: ADME, Microsome
[18] = Cytotoxicity against MDCK cells assessed as reduction in cell viability measured after 48 hrs by CCK8 assay; type: cell-based, Canis lupus familiaris; details: dog, read-out: TC50
[19] = AUC (0 to infinity) in Sprague-Dawley rat at 5 mg/kg, po measured after 24 hrs by LC-MS/MS analysis; type: ADME, organism-based; set-up: time 24 hrs, dose 5 mg/kg, route po; details: in vivo
[20] = AUC (0 to t) in Sprague-Dawley rat at 5 mg/kg, po measured after 24 hrs by LC-MS/MS analysis; type: ADME, organism-based; set-up: time 24 hrs, dose 5 mg/kg, route po; details: in vivo
[21] = Oral bioavailability Sprague-Dawley rat at 5 mg/kg measured after 24 hrs by LC-MS/MS analysis; type: ADME, organism-based; details: in vivo
[22] = Clearance in mouse liver microsomes in presence of NADPH generating system by LC-MS/MS analysis; type: ADME, Microsome

Structure (SMILES): O=C1c2c(O)c(=O)ccn2N(C2c3ccccc3C=Cc3ccccc32)[C@@H]2COCCN12
- inhibition (HEK293T [1]): 50%
- inhibition at 0.003 µM (Influenza A virus [2]): 88.5%
- CLH [3]: 14.49 microL/ml/min
- IC50 [4]: 0.38 nM
- selectivity ratio [5]: 497000
- IC50 (Influenza A virus [6]): 0.42 nM
- Activity (MDCK): Non-Toxic
- half-life [7]: 1.7 h
- selectivity ratio [8]: 450000
- inhibition (HEK293T [9]): Dose-dependent effect
- half-life [10]: 73.8 h
- Tmax [11]: 0.83 h
- CLH [12]: 79.04 µmol/min/g
- Activity (Influenza A virus [13]): Dose-dependent effect
- Activity (Influenza A virus [14]): Dose-dependent effect
- Cmax [15]: 88.1 ng/mL
- half-life [16]: 31.4 h
- half-life [17]: 221 h
- CC50 at 48 h [18]: 189000 nM
- AUC(0-inf) [19]: 311 ng·h/mL
- AUC(0-t) at 24 h [20]: 295 ng·h/mL
- bioavailability [21]: 22.9%
- CLH [22]: 73.9 microL/ml/min

Structure (SMILES): O=C1c2c(O)c(=O)ccn2N(C2c3ccccc3C=Cc3ccc(Br)cc32)[C@@H]2COCCN12 (mixture of isomers)
- IC50 [4]: 26.7 nM
- selectivity ratio [5]: > 7490
- IC50 (Influenza A virus [6]): 19.4 nM
- Activity (MDCK): Non-Toxic
- selectivity ratio [8]: > 10300
- CC50 at 48 h [18]: > 200000 nM

Structure (SMILES): O=C1c2c(O)c(=O)ccn2N(C2c3ccccc3C=Cc3ccc(Cl)cc32)[C@@H]2COCCN12 (mixture of isomers)
- IC50 [4]: 15.2 nM
- selectivity ratio [5]: 1330
- IC50 (Influenza A virus [6]): 14.3 nM
- selectivity ratio [8]: 1440
- CC50 at 48 h [18]: 20100 nM

Structure (SMILES): Cc1ccc2c(c1)C(N1[C@@H]3COCCN3C(=O)c3c(O)c(=O)ccn31)c1ccccc1C=C2 (mixture of isomers)
- IC50 [4]: 111 nM
- selectivity ratio [5]: 472
- IC50 (Influenza A virus [6]): 39.3 nM
- Activity (MDCK): Non-Toxic
- selectivity ratio [8]: 1330
- CC50 at 48 h [18]: 52400 nM

Structure (SMILES): O=C1c2c(O)c(=O)ccn2N(C2c3ccccc3C=Cc3c(Cl)cccc32)[C@@H]2COCCN12 (mixture of isomers)
- inhibition (HEK293T [1]): 53.5%
- inhibition at 0.003 µM (Influenza A virus [2]): 76.3%
- IC50 [4]: 0.53 nM
- selectivity ratio [5]: 16100
- IC50 (Influenza A virus [6]): 0.59 nM
- selectivity ratio [8]: 14500
- inhibition (HEK293T [9]): Dose-dependent effect
- Activity (Influenza A virus [13]): Dose-dependent effect
- Activity (Influenza A virus [14]): Dose-dependent effect
- CC50 at 48 h [18]: 8530 nM

Structure (SMILES): O=C1c2c(O)c(=O)ccn2N(C2c3ccccc3C=Cc3cc(Br)ccc32)[C@@H]2COCCN12 (mixture of isomers)
- IC50 [4]: 15.1 nM
- selectivity ratio [5]: 1440
- IC50 (Influenza A virus [6]): 10.6 nM
- selectivity ratio [8]: 2050
- CC50 at 48 h [18]: 21700 nM

Structure (SMILES): O=C1c2c(O)c(=O)ccn2N(C2c3ccccc3C=Cc3c(F)cccc32)[C@@H]2COCCN12 (mixture of isomers)
- inhibition (HEK293T [1]): 48.5%
- inhibition at 0.003 µM (Influenza A virus [2]): 86%
- IC50 [4]: 0.57 nM
- selectivity ratio [5]: 34000
- IC50 (Influenza A virus [6]): 0.39 nM
- selectivity ratio [8]: 49600
- inhibition (HEK293T [9]): Dose-dependent effect
- Activity (Influenza A virus [13]): Dose-dependent effect
- Activity (Influenza A virus [14]): Dose-dependent effect
- CC50 at 48 h [18]: 19400 nM

Structure (SMILES): O=C1c2c(O)c(=O)ccn2N(C2c3ccccc3C=Cc3cc(F)ccc32)[C@@H]2COCCN12 (mixture of isomers)
- IC50 [4]: 0.82 nM
- selectivity ratio [5]: 72600
- IC50 (Influenza A virus [6]): 0.51 nM
- Activity (MDCK): Non-Toxic
- selectivity ratio [8]: 117000
- Activity (Influenza A virus [14]): Dose-dependent effect
- CC50 at 48 h [18]: 59500 nM

Structure (SMILES): O=C1c2c(O)c(=O)ccn2N(C2c3ccccc3C=Cc3ccc(F)cc32)[C@@H]2COCCN12 (mixture of isomers)
- IC50 [4]: 1.77 nM
- selectivity ratio [5]: > 113000
- IC50 (Influenza A virus [6]): 2.91 nM
- Activity (MDCK): Non-Toxic
- selectivity ratio [8]: > 68700
- Activity (Influenza A virus [14]): Dose-dependent effect
- CC50 at 48 h [18]: > 200000 nM

Structure (SMILES): COc1ccc2c(c1)C(N1[C@@H]3COCCN3C(=O)c3c(O)c(=O)ccn31)c1ccccc1C=C2 (mixture of isomers)
- IC50 [4]: 128 nM
- selectivity ratio [5]: > 1560
- IC50 (Influenza A virus [6]): 281 nM
- Activity (MDCK): Non-Toxic
- selectivity ratio [8]: > 711
- CC50 at 48 h [18]: > 200000 nM

Structure (SMILES): O=C1c2c(O)c(=O)ccn2N(C2c3ccccc3C=Cc3cc(Cl)ccc32)[C@@H]2COCCN12 (mixture of isomers)
- IC50 [4]: 4.69 nM
- selectivity ratio [5]: 4090
- IC50 (Influenza A virus [6]): 7.17 nM
- selectivity ratio [8]: 2670
- CC50 at 48 h [18]: 19200 nM
